Reference: ChEMBL document CHEMBL1131846, “Selective A1-adenosine receptor antagonists identified using yeast Saccharomyces cerevisiae functional assays” (Bioorg Med Chem Lett, 1999)

Key:
Adenosine receptor A1 [1] = molecular target: T1, Adenosine receptor A1 (Homo sapiens, UniProt P30542); assay: Inhibitory activity against binding of [3H]DPCPX to human A1 receptor (hA1) using competition binding assay
T1 sequence (P30542 whole entry): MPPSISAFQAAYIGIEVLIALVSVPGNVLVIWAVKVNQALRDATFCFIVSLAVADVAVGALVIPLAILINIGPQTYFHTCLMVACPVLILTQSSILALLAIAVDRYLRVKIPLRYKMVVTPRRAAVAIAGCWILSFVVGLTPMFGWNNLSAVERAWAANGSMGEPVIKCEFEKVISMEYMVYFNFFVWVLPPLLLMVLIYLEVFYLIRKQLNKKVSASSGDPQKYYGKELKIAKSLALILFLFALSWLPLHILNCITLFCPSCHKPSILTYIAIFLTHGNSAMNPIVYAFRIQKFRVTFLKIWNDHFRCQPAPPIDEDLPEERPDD

Adenosine receptor A1 [2] = molecular target: T1, Adenosine receptor A1; assay: Inhibitory activity against binding of the [3H]DPCPX to human A1 receptor (hA1) radioligands using competition binding assay
Adenosine receptor A1 [3] = molecular target: T1, Adenosine receptor A1; assay: Inhibitory activity against membranes from yeast cells transformed with human A1 receptor (hA1); type: cell-based
Adenosine receptor A2a [4] = molecular target: T2, Adenosine receptor A2a (Homo sapiens, UniProt P29274); assay: Inhibitory activity against binding of [3H]CGS-21680 to human A2a receptor (hA2a) using competition binding assay
T2 sequence (P29274 whole entry): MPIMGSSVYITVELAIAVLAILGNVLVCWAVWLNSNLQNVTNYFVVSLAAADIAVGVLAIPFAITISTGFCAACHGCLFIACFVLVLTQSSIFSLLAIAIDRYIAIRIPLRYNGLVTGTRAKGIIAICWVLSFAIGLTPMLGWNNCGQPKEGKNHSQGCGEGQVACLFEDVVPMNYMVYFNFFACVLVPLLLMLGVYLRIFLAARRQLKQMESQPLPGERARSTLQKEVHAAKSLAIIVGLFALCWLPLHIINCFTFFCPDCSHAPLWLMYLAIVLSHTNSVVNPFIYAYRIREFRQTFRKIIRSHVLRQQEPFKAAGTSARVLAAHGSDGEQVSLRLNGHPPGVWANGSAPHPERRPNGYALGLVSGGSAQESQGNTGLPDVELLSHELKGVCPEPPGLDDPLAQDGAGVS

Adenosine receptor A2a [5] = molecular target: T2, Adenosine receptor A2a; assay: Inhibitory activity against membranes from HEK293 cells stably expressing the human A2a receptor (hA2a); type: cell-based
Adenosine receptor A2a [6] = molecular target: T2, Adenosine receptor A2a; assay: Inhibitory activity against binding of the [3H]CGS-21680 to human A2a receptor (hA2a) radioligands using competition binding assay
Adenosine receptor A2a [7] = molecular target: T2, Adenosine receptor A2a; assay: Inhibitory activity against binding of [3H]CGS-21680 to human A2a receptor (hA2a) using competition binding assay at a concentration of 10 uM
Adenosine receptor A2a [8] = molecular target: T2, Adenosine receptor A2a; assay: Inhibitory activity against binding of the [3H]CGS-21680 to human A2a receptor (hA2a) radioligands using competition binding assay at a concentration of 10 uM
[9] = molecular target: T3, Adenosine receptor A1 (Homo sapiens) (UniProt P30542); assay: Inhibitory activity against binding of [3H]DPCPX to human A1 receptor (hA1) using competition binding assay at a concentration of 10 uM
T3 sequence (whole entry): T1 sequence (P30542 whole entry)

[10] = molecular target: T3, Adenosine receptor A1 (Homo sapiens); assay: Inhibitory activity against binding of the [3H]DPCPX to human A1 receptor (hA1) radioligands using competition binding assay at a concentration of 10 uM
Adenosine receptor A2a [11] = molecular target: T2, Adenosine receptor A2a; assay: Inhibitory activity against membranes from HEK293 cells stably expressing the human A2a receptor (hA2a) at a concentration of 10 uM; type: cell-based

IC50 (Adenosine receptor A1 [1]) [nM] | Ki (Adenosine receptor A1 [2]) [nM] | IC50 (Adenosine receptor A1 [3]) [nM] | IC50 (Adenosine receptor A2a [4]) [nM] | IC50 (Adenosine receptor A2a [5]) [nM] | Ki (Adenosine receptor A2a [6]) [nM] | inhibition (Adenosine receptor A2a [7]) [%] | inhibition (Adenosine receptor A2a [8]) [%] | inhibition [9] [%] | inhibition [10] [%] | inhibition (Adenosine receptor A2a [11]) [%] | Compound
262 | 132 | 222 | 1710 | 2010 | 811 |  |  |  |  |  | Cc1[nH]c2nc(-c3ccccc3)nc(NCc3ccncc3)c2c1C
1810 | 896 | 1700 |  | 3220 |  | 59 | 59 |  |  |  | Cc1[nH]c2nc(-c3ccccc3)nc(N[C@@H]3Cc4ccccc4[C@H]3O)c2c1C
364 | 144 | 422 | 604 | 725 | 215 |  |  |  |  |  | Cc1[nH]c2nc(-c3ccccc3)nc(NCCN3CCNC3=O)c2c1C
1540 | 771 | 1260 | 2060 | 2110 | 962 |  |  |  |  |  | Cc1[nH]c2nc(-c3ccccc3)nc(N[C@@H]3CCCCNC3=O)c2c1C
1910 | 951 | 1750 | 3400 | 2680 | 1140 |  |  |  |  |  | Cc1[nH]c2nc(-c3ccccc3)nc(N[C@H](CO)CC(C)C)c2c1C
1980 | 981 | 1610 |  | 3880 |  | 61 | 61 |  |  |  | Cc1nc2nc(-c3ccccc3)[nH]c(N[C@H](C)c3ccccc3)c-2c1C
 |  | 5650 |  |  |  | 54 | 54 | 75 | 75 | 58 | Cc1[nH]c2nc(-c3ccccc3)nc(NCCCN3CCCC3=O)c2c1C

Compound | IC50 (Adenosine receptor A1 [1]) [nM] | Ki (Adenosine receptor A1 [2]) [nM] | IC50 (Adenosine receptor A1 [3]) [nM] | IC50 (Adenosine receptor A2a [4]) [nM] | IC50 (Adenosine receptor A2a [5]) [nM] | Ki (Adenosine receptor A2a [6]) [nM] | inhibition (Adenosine receptor A2a [7]) [%] | inhibition (Adenosine receptor A2a [8]) [%] | inhibition [9] [%] | inhibition [10] [%] | inhibition (Adenosine receptor A2a [11]) [%]
CC(=O)NCCNc1nc(-c2ccccc2)nc2[nH]c(C)c(C)c12 |  |  |  | 48 | 48 | 23 |  |  |  |  | 
